Among the data in patent publication US10239873B2, “7-azaindole or 4,7-diazaindole derivatives as IKKϵ epsilon and TBK1 inhibitor and pharmaceutical composition comprising same” (GREEN CROSS CORPORATION, priority 2015, dated 2019) are IC50 values, retold here.

One test concerns the target T1, TBK1 (Homo sapiens, UniProt Q9UHD2).
T1 construct: purchased Promega (Invitrogen is also named in the same bracket) V4158; PR8031B; V3991 (not assigned to the two kinases)
T1 sequence (Q9UHD2 1-729): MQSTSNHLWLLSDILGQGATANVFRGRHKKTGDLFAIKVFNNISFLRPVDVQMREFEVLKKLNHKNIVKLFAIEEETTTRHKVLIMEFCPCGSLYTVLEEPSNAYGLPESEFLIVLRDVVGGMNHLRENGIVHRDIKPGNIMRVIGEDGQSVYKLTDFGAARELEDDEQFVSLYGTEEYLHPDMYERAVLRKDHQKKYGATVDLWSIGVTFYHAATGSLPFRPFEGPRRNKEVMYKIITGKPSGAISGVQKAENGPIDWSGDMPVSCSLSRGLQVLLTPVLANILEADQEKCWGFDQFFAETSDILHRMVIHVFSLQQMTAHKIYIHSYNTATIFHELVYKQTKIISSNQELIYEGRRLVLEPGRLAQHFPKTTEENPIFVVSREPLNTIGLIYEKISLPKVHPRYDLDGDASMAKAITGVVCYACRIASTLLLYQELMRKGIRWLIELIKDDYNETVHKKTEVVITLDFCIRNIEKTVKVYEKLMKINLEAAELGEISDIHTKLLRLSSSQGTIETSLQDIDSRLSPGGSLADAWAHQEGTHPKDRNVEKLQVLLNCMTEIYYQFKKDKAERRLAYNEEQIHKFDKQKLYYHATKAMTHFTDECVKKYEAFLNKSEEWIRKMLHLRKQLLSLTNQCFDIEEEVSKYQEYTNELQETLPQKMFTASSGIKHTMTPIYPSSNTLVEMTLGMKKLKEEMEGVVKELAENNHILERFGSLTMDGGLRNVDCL
As to the kind of experiment: ADP-Glo Kinase Assay, inhibition activity on TBK1. It is filed as biochemical. The gist of the method:
(§1)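 In 40 mM Tris pH 7.5 with 20 mM MgCl2 and 0.1 mg/mL BSA, each enzyme (IKKε or TBK1 kinase system) was run according to the manufacturer's protocol. ADP formed was detected by ADP-Glo luminescence.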

The target in the next test is T2, IKKε (Homo sapiens, UniProt Q14164).
T2 construct: purchased Promega and/or Invitrogen V4158; PR8031B; V3991 (not assigned to the two kinases)
T2 sequence (Q14164 1-716): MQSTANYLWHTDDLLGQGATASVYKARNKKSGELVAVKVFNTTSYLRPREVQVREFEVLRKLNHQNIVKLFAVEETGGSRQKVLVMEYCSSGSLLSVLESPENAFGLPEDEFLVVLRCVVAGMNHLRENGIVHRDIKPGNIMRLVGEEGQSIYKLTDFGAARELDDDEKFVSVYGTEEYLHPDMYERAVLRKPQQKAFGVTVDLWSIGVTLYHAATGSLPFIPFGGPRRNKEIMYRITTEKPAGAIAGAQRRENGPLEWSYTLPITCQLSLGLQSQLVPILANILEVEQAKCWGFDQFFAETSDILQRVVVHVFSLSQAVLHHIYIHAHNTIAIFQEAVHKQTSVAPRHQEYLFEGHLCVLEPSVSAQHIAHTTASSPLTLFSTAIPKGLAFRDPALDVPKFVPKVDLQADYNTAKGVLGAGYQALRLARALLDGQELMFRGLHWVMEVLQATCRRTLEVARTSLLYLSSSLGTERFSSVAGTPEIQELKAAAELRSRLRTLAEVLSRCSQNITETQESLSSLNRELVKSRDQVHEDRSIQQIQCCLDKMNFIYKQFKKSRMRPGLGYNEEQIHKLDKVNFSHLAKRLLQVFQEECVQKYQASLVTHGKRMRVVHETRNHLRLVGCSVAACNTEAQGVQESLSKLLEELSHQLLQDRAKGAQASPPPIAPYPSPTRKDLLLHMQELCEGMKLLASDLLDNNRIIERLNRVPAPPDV
The test can be described thus: ADP-Glo Kinase Assay, inhibition activity on IKKε. It is filed as biochemical. Put shortly:
as §1

As for `COc1ccc(-c2cnc3[nH]cc(C4=CC(c5ccccc5)N(C(=O)NC(C)C)CC4)c3c2)cc1OC` (stereo not shown) [Example 119, 4-(5-(3,4-Dimethoxyphenyl)-1H-pyrrolo[2,3-b]pyridin-3-yl)-N-isopropyl-2-phenyl-5,6-dihydropyridine-1(2H)-carboxamide], the IC50 against TBK1 was 5.41 µM; against IKKε, 3.47 µM.
For `CC1CN(C(=O)NC2CCCC2)CC=C1c1c[nH]c2ncc(-c3ccc(S(C)(=O)=O)cc3)cc12` (stereo not shown) [Example 121, N-cyclopentyl-5-methyl-4-(5-(4-(methylsulfonyl)phenyl)-1H-pyrrolo[2,3-b]pyridin-3-yl)-5,6-dihydropyridine-1(2H)-carboxamide], in that order: 0.097 µM and 0.33 µM.
Consider `CC1CN(C(=O)NC2CCCC2)CC=C1c1c[nH]c2ncc(-c3cccc(S(C)(=O)=O)c3)cc12` (stereo not shown) [Example 122, N-cyclopentyl-5-methyl-4-(5-(3-(methylsulfonyl)phenyl)-1H-pyrrolo[2,3-b]pyridin-3-yl)-5,6-dihydropyridine-1(2H)-carboxamide], for which the IC50 against TBK1 came to 0.036 µM; at IKKε it was 0.097 µM.
Consider `CC1CN(C(=O)NC2CCCC2)CC=C1c1c[nH]c2ncc(-c3cccc(S(N)(=O)=O)c3)cc12` (stereo not shown) [Example 123, N-cyclopentyl-5-methyl-4-(5-(3-sulfamoylphenyl)-1H-pyrrolo[2,3-b]pyridin-3-yl)-5,6-dihydropyridine-1(2H)-carboxamide], for which the results for the IC50 at TBK1 and against IKKε were 0.028 µM and 0.08 µM, respectively.
For `CC(C)NC(=O)N1CC=C(c2c[nH]c3ncc(-c4ccc(CN5CCN(C)CC5)s4)cc23)C(C)C1` (stereo not shown) [Example 125, N-isopropyl-5-methyl-4-(5-(5-((4-methylpiperazin-1-yl)methyl)thiophen-2-yl)-1H-pyrrolo[2,3-b]pyridin-3-yl)-5,6-dihydropyridine-1(2H)-carboxamide], in that order: 0.0036 µM and 0.027 µM.
For `CC1CN(C(=O)NC2CCCC2)CC=C1c1c[nH]c2ncc(-c3ccc(CN4CCN(C)CC4)s3)cc12` (stereo not shown) [Example 126, N-cyclopentyl-5-methyl-4-(5-(5-((4-methylpiperazin-1-yl)methyl)thiophen-2-yl)-1H-pyrrolo[2,3-b]pyridin-3-yl)-5,6-dihydropyridine-1(2H)-carboxamide], in that order: 0.015 µM and 0.033 µM.
Turning to `CC1CN(C(=O)NC2CCCC2)CC=C1c1c[nH]c2ncc(-c3ccc(CN4CCOCC4)s3)cc12` (stereo not shown) [Example 127, N-cyclopentyl-5-methyl-4-(5-(5-(morpholinomethyl)thiophen-2-yl)-1H-pyrrolo[2,3-b]pyridin-3-yl)-5,6-dihydropyridine-1(2H)-carboxamide], the figures for the IC50 against TBK1 and on IKKε were 0.004 µM and 0.1 µM, respectively.
For `NS(=O)(=O)c1cccc(-c2cnc3[nH]cc(C4=CCN(C(=O)OC5CCCC5)CC4)c3c2)c1` [Example 145, Cyclopentyl 4-(5-(3-sulfamoylphenyl)-1H-pyrrolo[2,3-b]pyridin-3-yl)-5,6-dihydropyridine-1(2H)-carboxylate], the IC50 on TBK1 was 0.033 µM; on IKKε it was 0.12 µM.
As to `CC(C)OC(=O)N1CC=C(c2c[nH]c3ncc(-c4ccc(S(C)(=O)=O)cc4)cc23)CC1` [Example 148, Isopropyl 4-(5-(4-(methylsulfonyl)phenyl)-1H-pyrrolo[2,3-b]pyridin-3-yl)-5,6-dihydropyridine-1(2H)-carboxylate], the figures for the IC50 against TBK1 and on IKKε were 0.054 µM and 0.25 µM, respectively.
The corresponding values for `Cc1nnc(-c2cnc3[nH]cc(C4=CCN(C(=O)OC(C)(C)C)CC4)c3c2)s1` [Example 170, tert-Butyl 4-(5-(5-methyl-1,3,4-thiadiazol-2-yl)-1H-pyrrolo[2,3-b]pyridin-3-yl)-5,6-dihydropyridine-1(2H)-carboxylate] are 0.032 µM and 0.28 µM.
For `CN(C)S(=O)(=O)c1ccc(-c2cnc3[nH]cc(C4=CCN(C(=O)OC5CCCC5)CC4)c3c2)cc1` [Example 179, Cyclopentyl 4-(5-(4-(N,N-dimethylsulfamoyl)phenyl)-1H-pyrrolo[2,3-b]pyridin-3-yl)-5,6-dihydropyridine-1(2H)-carboxylate], in that order: 0.34 µM and 0.5 µM.
For `O=C(c1cccs1)N1CC=C(c2c[nH]c3ncc(-c4ccc(S(=O)(=O)N5CCOCC5)cc4)cc23)CC1` [Example 190, (4-(5-(4-(Morpholinosulfonyl)phenyl)-1H-pyrrolo[2,3-b]pyridin-3-yl)-5,6-dihydropyridin-1(2H)-yl)(thiophen-2-yl)methanone], in that order: 0.14 µM and 0.39 µM.
As to `O=C(c1cccs1)N1CC=C(c2c[nH]c3ncc(-c4ccc5[nH]ncc5c4)cc23)CC1` [Example 204, (4-(5-(1H-indazol-5-yl)-1H-pyrrolo[2,3-b]pyridin-3-yl)-5,6-dihydropyridin-1(2H)-yl)(thiophen-2-yl)methanone], the IC50 on TBK1 is 0.057 µM; at IKKε, 0.28 µM.
Regarding `CN1CCN(Cc2ccc(-c3cnc4[nH]cc(C5=CCN(C(=O)c6cccs6)CC5)c4c3)s2)CC1` [Example 205, (4-(5-(5-((4-methylpiperazin-1-yl)methyl)thiophen-2-yl)-1H-pyrrolo[2,3-b]pyridin-3-yl)-5,6-dihydropyridin-1(2H)-yl)(thiophen-2-yl)methanone], the figures for the IC50 against TBK1 and against IKKε were 0.0033 µM and 0.023 µM, respectively.
For `O=C(c1ccc(-c2cnc3[nH]cc(C4=CCN(C(=O)c5cccs5)CC4)c3c2)cc1)N1CCOCC1` [Example 209, (4-(5-(4-(morpholine-4-carbonyl)phenyl)-1H-pyrrolo[2,3-b]pyridin-3-yl)-5,6-dihydropyridin-1(2H)-yl)(thiophen-2-yl)methanone], in that order: 0.007 µM and 0.14 µM.
For `CS(=O)(=O)c1cccc(-c2cnc3[nH]cc(C4=CCN(C(=O)NC5CCCC5)CC4)c3n2)c1` [Example 228, N-cyclopentyl-4-(2-(3-(methylsulfonyl)phenyl)-5H-pyrrolo[2,3-b]pyrazin-7-yl)-5,6-dihydropyridine-1(2H)-carboxamide], in that order: 0.09 µM and 0.4 µM.
The corresponding values for `COc1ccc(-c2cnc3[nH]cc(C4CCN(C(=O)NC(C)C)CC4)c3c2)cc1OC` [Example 235, 4-(5-(3,4-dimethoxyphenyl)-1H-pyrrolo[2,3-b]pyridin-3-yl)-N-isopropylpiperidine-1-carboxamide] are more than 10 µM and more than 10 µM.
With `COc1ccc(-c2cnc3[nH]cc(C4=CCN(C(=O)NC(C)C)C4)c3c2)cc1OC` [Example 237, 3-(5-(3,4-dimethoxyphenyl)-1H-pyrrolo[2,3-b]pyridin-3-yl)-N-isopropyl-2,5-dihydro-1H-pyrrol-1-carboxamide], the IC50 on TBK1 and against IKKε was more than 10 µM throughout.
`COc1ccc(-c2cnc3[nH]cc(C4CCN(C(=O)NC(C)C)C4)c3c2)cc1OC` (stereo not shown) [Example 238, 3-(5-(3,4-dimethoxyphenyl)-1H-pyrrolo[2,3-b]pyridin-3-yl)-N-isopropylpyrrolidine-1-carboxamide]: the values for the IC50 against TBK1 and on IKKε were 6.23 µM and 6.05 µM, respectively.
The corresponding values for `O=C(c1cccs1)N1CC=C(c2c[nH]c3ncc(Nc4ccc(CN5CCOCC5)cc4)cc23)CC1` [Example 250, (4-(5-(4-(morpholinomethyl)phenylamino)-1H-pyrrolo[2,3-b]pyridin-3-yl)-5,6-dihydropyridin-1(2H)-yl)(thiophen-2-yl)methanone] are 0.17 µM and 0.84 µM.
